Measurements: US7888042B2, “Methods for identifying insulin mimetics” (Ohio University, priority 2005, dated 2011)

How the values were obtained:
ob/ob mice = test: Blood glucose in ob/ob mice, ip injection; type: in vivo; conditions: ip 20 mg/kg on day 0 and day 4, P<0.001
Method: Either 6-8 week old male db/db mice or 8-12 week old male ob/ob mice were treated with aqueous solutions of α-PGG by either oral delivery (˜10 μL, A & B) or ip injection (˜50 μL, C, & D). (n=8-10, mean±SD, one-way ANOVA). α-PGG (●); vehicle (∘). α-PGG (20 mg/kg) was orally delivered without glucose to fasting db/db mice (A *, P<0.02; **, P<0.01; ***, P<0.001) or with glucose (0.4 g/kg body weight) to fasting ob/ob mice (B, glucose tolerance test). α-PGG (20 mg/kg) was ip injected into ob/ob mice on day 0 and day 4 (C). A single ip injection (20 mg/kg) of α-PGG was administered to ob/ob mice (D). Glucose (A, B, C) or insulin (D) was determined from sera or plasma isolated from tail vein blood. Animal studies. Genetically diabetic db/db mice or obese ob/ob mice were purchased from Jackson Lab. Male mice of 2-3 months of age were used. Unless otherwise stated, 10 mice (N=10) were used per group. α-PGG was either orally administered or intraperitoneally (ip) injected in the form of an aqueous solution at 20 mg/kg body weight with a 1-cc sterile plastic syringe. At different times after the α-PGG administration, blood or plasma was collected from the tail vein for measurement of glucose and insulin concentrations using commercial kits. Vehicle (aqueous solution) treated mice were used as controls and were statistically compared with the α-PGG treated mice. […]

[1] = target: T1, IR isolated from CHO-IR cells (Homo sapiens, UniProt P06213); test: 125I-insulin displacement assay in WGA-coated wells; type: binding; conditions: 1 nM 125I-labeled insulin; read-out: IC50 for displacement of IR-bound radioactive insulin
T1 construct: expressed in transfected cells; host or cells: CHO-IR cells (from Dr. Alan Saltiel's lab)
T1 sequence (P06213 28-758 limits assumed): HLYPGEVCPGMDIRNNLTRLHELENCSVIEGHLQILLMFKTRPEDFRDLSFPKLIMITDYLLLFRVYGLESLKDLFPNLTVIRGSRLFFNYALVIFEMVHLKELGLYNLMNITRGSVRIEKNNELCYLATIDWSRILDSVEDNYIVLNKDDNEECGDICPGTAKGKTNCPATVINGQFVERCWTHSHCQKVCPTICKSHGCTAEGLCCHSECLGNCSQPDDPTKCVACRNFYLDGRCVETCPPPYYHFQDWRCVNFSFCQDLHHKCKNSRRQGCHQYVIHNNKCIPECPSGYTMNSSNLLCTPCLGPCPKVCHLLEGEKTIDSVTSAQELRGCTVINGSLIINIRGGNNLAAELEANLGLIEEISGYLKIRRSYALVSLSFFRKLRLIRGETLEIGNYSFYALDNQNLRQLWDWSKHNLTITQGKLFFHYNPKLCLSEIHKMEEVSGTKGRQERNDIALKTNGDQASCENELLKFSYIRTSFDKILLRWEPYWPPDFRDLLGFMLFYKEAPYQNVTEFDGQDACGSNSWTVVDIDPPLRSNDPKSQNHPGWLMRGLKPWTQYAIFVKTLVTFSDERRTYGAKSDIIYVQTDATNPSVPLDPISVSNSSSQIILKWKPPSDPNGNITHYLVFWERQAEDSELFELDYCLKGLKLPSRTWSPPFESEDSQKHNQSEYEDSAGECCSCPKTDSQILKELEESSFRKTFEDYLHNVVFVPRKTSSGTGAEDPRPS
T1 sequence (P06213 763-1382 partner limits assumed): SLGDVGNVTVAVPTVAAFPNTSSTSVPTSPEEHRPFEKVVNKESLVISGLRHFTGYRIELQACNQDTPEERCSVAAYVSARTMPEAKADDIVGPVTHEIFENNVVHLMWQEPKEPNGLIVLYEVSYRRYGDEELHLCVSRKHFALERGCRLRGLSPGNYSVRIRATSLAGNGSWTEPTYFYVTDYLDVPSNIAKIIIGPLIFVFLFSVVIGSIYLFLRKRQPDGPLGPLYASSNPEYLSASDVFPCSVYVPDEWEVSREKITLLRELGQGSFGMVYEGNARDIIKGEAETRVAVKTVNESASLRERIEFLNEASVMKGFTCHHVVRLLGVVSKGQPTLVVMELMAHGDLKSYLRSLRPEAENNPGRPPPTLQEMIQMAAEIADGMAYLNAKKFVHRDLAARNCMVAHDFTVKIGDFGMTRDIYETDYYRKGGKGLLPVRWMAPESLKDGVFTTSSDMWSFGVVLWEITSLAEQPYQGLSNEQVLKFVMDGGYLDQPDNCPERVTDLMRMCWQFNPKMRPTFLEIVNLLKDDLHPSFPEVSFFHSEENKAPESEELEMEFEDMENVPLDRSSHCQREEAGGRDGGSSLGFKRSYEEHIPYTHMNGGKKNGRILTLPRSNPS
Method: (§1) (A) α-PGG binds to IR as measured by a SPR (28). Increasing concentrations of α-PGG was injected into the system to interact with the pure IR attached to the gold surface of the biosensor chip. The binding, represented in arbitrary response units, was automatically plotted against α-PGG concentrations to generate the binding curve. (B) Insulin binding to IR in the absence or presence of α-PGG. Increasing amounts of ^125I-labeled insulin were added to WGA-coated wells containing pre-bound IR isolated from CHO-IR cells in the absence of α-PGG or in the presence of 30 μM or 50 μM of α-PGG. After overnight incubation, removal of excessive ligands, and washing, the bound radioactive insulin was measured. (C) Insulin displacement by α-PGG. Fixed amounts of radioactive insulin (1 nM) were added to each of the WGA-coated wells pre-bound with IR. Increasing amounts of α-PGG were added to the wells to displace the ^125I-labeled insulin. […]
(§2) Insulin receptor binding studies. […] After sensograms of α-PGG-IR binding at different concentrations were recorded, the binding affinity was analyzed using BIAevaluation software. […] The bound ligand was detached (eluted) from the receptor with 2×200 μL 0.2M Glycine pH 2.8, and measured for its radioactivity using a Beckman Coulter LS 6400 Multi-Purpose Scintillation Counter. […] The receptor binding results were analyzed with the software GraphPad Prism.

3T3-L1 adipocytes = test: Glucose uptake assay in 3T3-L1 adipocytes; type: cell-based
Method: Chemical synthesis yields both the α- and β-anomers of PGG. (B) Glucose transport stimulatory activity (13, 14) of PGG was assessed by incubating adipocytes in 6-well plates with insulin or PGG for 15 min followed by the addition of [^3H]-2-deoxy-D-glucose for 10 min before quantifying uptake (13, n=3, mean±SD, Two way-ANOVA, * P<0.05; ** P<0.01). α-PGG (●); β-PGG (□); insulin (∘). (C) Glucose transport induced by insulin in the presence of α-PGG. One […] of insulin was added to adipocytes in the presence of increasing amounts of α-PGG. After induction, radioactive glucose was added, and the glucose taken up by the cells was counted.
Reagents, compound synthesis, and glucose uptake assay. Bovine insulin was purchased from Sigma. PGG, in an approximate 1:1 mixture of α- and β-PGG, was synthesized from glucose in the non-radioactive form as described (22). The identity of the compounds was confirmed by MS and NMR. The compounds were dissolved in double distilled water (ddH2O), filter sterilized, and stored as a 10 mM aqueous stock solution at −20° C. The stock solutions were diluted to final concentrations with sterile ddH2O. Glucose uptake assays in 3T3-L1 adipocytes induced by PGG were performed as described (13).

[2] = target: T1, IR isolated from CHO-IR cells; test: 125I-insulin saturation binding to IR in WGA-coated wells; conditions: 30 μM or 50 μM α-PGG
Method: as §1, §2

db/db mice = test: Blood glucose in fasting db/db mice, oral dose; type: in vivo
Method: Either 6-8 week old male db/db mice or 8-12 week old male ob/ob mice were treated with aqueous solutions of α-PGG by either oral delivery (˜10 μL, A & B) or ip injection (˜50 μL, C, & D). (n=8-10, mean±SD, one-way ANOVA). α-PGG (●); vehicle (∘). α-PGG (20 mg/kg) was orally delivered without glucose to fasting db/db mice (A *, P<0.02; **, P<0.01; ***, P<0.001) or with glucose (0.4 g/kg body weight) to fasting ob/ob mice (B, glucose tolerance test). α-PGG (20 mg/kg) was ip injected into ob/ob mice on day 0 and day 4 (C). A single ip injection (20 mg/kg) of α-PGG was administered to ob/ob mice (D). Glucose (A, B, C) or insulin (D) was determined from sera or plasma isolated from tail vein blood. Animal studies. Genetically diabetic db/db mice or obese ob/ob mice were purchased from Jackson Lab. Male mice of 2-3 months of age were used. Unless otherwise stated, 10 mice (N=10) were used per group. α-PGG was either orally administered or intraperitoneally (ip) injected in the form of an aqueous solution at 20 mg/kg body weight with a 1-cc sterile plastic syringe. At different times after the α-PGG administration, blood or plasma was collected from the tail vein for measurement of glucose and insulin concentrations using commercial kits. Vehicle (aqueous solution) treated mice were used as controls and were statistically compared with the α-PGG treated mice. All animal studies were conducted in accord with the Ohio University guidelines for the use and care of laboratory animals.

- IC50 [1]: 10 ± 1 µM
- maximal binding (Bmax) for insulin [2]: reduced in a dose-dependent manner
Structure (SMILES): O=C(OC[C@H]1O[C@H](OC(=O)c2cc(O)c(O)c(O)c2)[C@H](OC(=O)c2cc(O)c(O)c(O)c2)[C@@H](OC(=O)c2cc(O)c(O)c(O)c2)[C@@H]1OC(=O)c1cc(O)c(O)c(O)c1)c1cc(O)c(O)c(O)c1 [α-PGG, alpha 1,2,3,4,6-penta-O-galloyl-D-Glucopyranose]
- blood glucose levels (ob/ob mice): significantly and consistently lowered
- induction of glucose transport (3T3-L1 adipocytes; 3T3-L1 adipocytes, [3H]-2-deoxy-D-glucose uptake, 15 min incubation): induced glucose transport in adipocytes in a dose-dependent manner
- glucose transport activity, more active than β-PGG (3T3-L1 adipocytes; 15-30 μM concentration range, P<0.05 at 15 μM, P<0.01 at 30 μM): 10-20%
- EC50 (3T3-L1 adipocytes; Mus musculus, 3T3-L1, estimated, printed 13 μM±2 μM, read-out: EC50 for glucose transport activity): 13 µM
- glucose transport induced by insulin on addition of α-PGG (3T3-L1 adipocytes; insulin plus increasing amounts of α-PGG): reduced the glucose transport activity induced by insulin towards that of α-PGG
- duration of blood glucose difference (db/db mice; oral 20 mg/kg): at least 5 hours
- glucose level lower than control group (db/db mice; oral 20 mg/kg, 4 to 6 hours after treatment): about 20%
- blood glucose levels (db/db mice; single oral dose 20 mg/kg): significantly decreased
